These results are taken from patent US20260125346A1, “Isoquinolinone Derivatives and 4H-Quinolizinone Derivatives and Pharmaceutical Compositions Thereof for the Treatment of Disease” (BeOne Medicines I GmbH, priority 2023, published 2026).

Usually IC50 stands for the concentration that gives 50% inhibition.

Test [1] addresses PI3Kα (p110/p85) kinase (wild type, "WT") (Homo sapiens, UniProt P42336). Briefly: PI3Kα (p110/p85) kinase ADP-Glo Assay. The format is biochemical. The settings on record: 25 uM ATP. On the procedure: PI3Kα (p110/p85) kinase ADP-Glo Assay. Certain compounds disclosed herein were tested for inhibition of PI3Kα (p110/p85) kinase (wild type, “WT”) in assays based on the ADP-Glo™ Kinase Assay methodology. The assays were carried out in 384-well white plates in a reaction mixture containing PI3Kα (p110/p85) kinase, 25 µM ATP, 5.35 µg/mL PI(4,5)P2:PS Lipid Kinase Substrate and […] compound in buffer containing 50 mM HEPES pH7.5, 50 mM NaCl, 3 mM MgCl2, 0.0025% BSA and 2 mM DTT. PI3Kα (p110/p85) kinase was incubated with Lipid Kinase Substrate and compound for 30 minutes at room temperature and the reaction was initiated by the addition of ATP. After reaction at room temperature for 120 minutes, ADP-Glo™ reagents were added to terminate the kinase reaction and deplete the remaining ATP according to the manufacture's instruction (Promega Corporation). After incubation at room temperature for 1 hour, Kinase Detection Reagent (prepared by reconstituting the lyophilized Kinase Detection Substrate with Kinase Detection Buffer of the kit) was added to convert the ADP to ATP and to allow for the newly synthesized ATP to be measured using a luciferase/luciferin reaction. After incubation at room temperature for 0.5 hour, chemiluminescence signals were recorded on a PHERAstar FSX plate reader (BMG Labtech). The chemiluminescence generated in this assay correlates to the amount of ADP generated in the kinase assay, indicating kinase activity. […] The IC50 for each compound was derived from fitting the data to the four-parameter logistic equation by Dotmatics.

For another test, the system named is WT cell line SK-BR-3. The experiment in a line: Phospho-AKT (Ser473) Inhibition Assay (HTRF), SK-BR-3. The test is classed as cell-based. The settings on record: Homo sapiens; SK-BR-3, 1 hour treatment; read-out: p-AKT Inhibition assay (S473) IC50 SK-BR-3. On the procedure:
The SK-BR-3 (ATCC, HTB-30) cell line was obtained from the American Type Culture Collection. Cells were maintained in McCoy' 5A medium (Gibco, REF #16600108) supplemented with 10% Fetal Bovine Serum. Cultures were maintained in a humidified incubator at 37° C. under 5% CO2/95% air.
(§1) Phospho-AKT Inhibition Assay. HTRF Phospho-AKT (Ser473) detection kit (Cisbio, REF #64AKSPEH) was used in phosphor-AKT inhibition assay. For compound screening, PI3Kα H1047R mutated cell line T-47D and WT cell line SK-BR-3 cells were seeded at a density of 3×10^4 cells per well in 96 well plate (Costar, REF #3599) in 95 μL of assay medium (MEM medium (Gibco, REF #12561-056) with 1×NEAA (Gibco, REF #11140-050), 1 mM sodium pyruvate (Gibco, REF #11360-070), and 1 g/ml human insulin (Topscience, REF #T8221)), overnight. Compounds dissolved in 10 mM stock solutions in DMSO were serially diluted 1:3 in DMSO to generate an 11-point dilution series and plated using an INTEGRA ASSIST PLUS pipetting robot. A 20× intermediate compound dilution plate in RPMI1640 medium (200 M starting compound concentration in 2% DMSO) was then prepared. Five μL of intermediate serially diluted compounds were added to the cell plate to final concentrations ranging from […] to 0.1 nM in 0.1% DMSO. 0.1% DMSO alone was used to establish the maximum signal and GDC0077 at final concentration of 10 μM was used as a reference compound for minimum signal. After 1 hour treatment, removed medium and added 50 μL of supplemented lysis buffer (1×) immediately. Incubated for at least 30 minutes at room temperature under shaking. Transferred 16 μL of cell lysate from the 96-well cell-culture plate to a 384-white detection plate (PerkinElmer, Optiplate 384, 6007299). Added 4 μL of premixed antibody solutions prepared in the detection buffer. Incubated 4 hours at room temperature in dark. The plates were read on PHERAstar FSX Microplate reader (BMG LABTECH, Inc.) using standard HTRF settings.
(§2) Relative IC50 values were determined using luminescence units by calculating percent inhibition with respect to the in-plate “MIN” (GDC0077 reference control) and “MAX” (DMSO) controls. The data were analyzed using a 4-parameter nonlinear logistic equation (four-parameter logistic concentration-response curve): Y=bottom+[(top−bottom)/1+(X/IC50) slope] • where Y=% inhibition, X=concentration of inhibitor, bottom=minimum value of y attained by curve-fit, top=maximum value of y attained by curve-fit and slope=steepness of curve at the IC50.
For orientation: In TR-FRET formats the signal depends on donor and acceptor labels being close together.

In test [2] the target is PI3Kα (p110[H1047R]/p85) kinase (Homo sapiens, UniProt P42336, H1047R). Briefly: PI3Kα (p110[H1047R]/p85) kinase ADP-Glo Assay. The test is classed as biochemical. The settings on record: 25 uM ATP; for selectivity: WT/H1047R: ADP-Glo Assay IC50 ratio. The method, then: PI3Kα (p110[H1047R]/p85) kinase ADP-Glo Assay. Certain compounds disclosed herein were tested for inhibition of PI3Kα (p110[H1047R]/p85) kinase in assays based on the ADP-Glo™ Kinase Assay methodology. The assays were carried out in 384-well white plates in a reaction mixture containing PI3Kα (p110[H1047R]/p85) kinase, 25 µM ATP, 5.35 µg/ml PI(4,5)P2:PS Lipid Kinase Substrate and […] compound in buffer containing 50 mM HEPES pH7.5, 50 mM NaCl, 3 mM MgCl2, 0.0025% BSA and 2 mM DTT. PI3Kα (p110[H1047R]/p85) kinase was incubated with Lipid Kinase Substrate and compound for 30 minutes at room temperature and the reaction was initiated by the addition of ATP.
After reaction at room temperature for 120 minutes, ADP-Glo™ reagents were added to terminate the kinase reaction and deplete the remaining ATP according to the manufacture's instruction (Promega Corporation). After incubation at room temperature for 1 hour, Kinase Detection Reagent (prepared by reconstituting the lyophilized Kinase Detection Substrate with Kinase Detection Buffer of the kit) was added to convert the ADP to ATP and to allow for the newly synthesized ATP to be measured using a luciferase/luciferin reaction. After incubation at room temperature for 0.5 hour, chemiluminescence signals were recorded on a PHERAstar FSX plate reader (BMG Labtech). The chemiluminescence generated in this assay correlates to the amount of ADP generated in the kinase assay, indicating kinase activity. […] The IC50 for each compound was derived from fitting the data to the four-parameter logistic equation by Dotmatics.
(In ADP-Glo the light output rises with the ADP produced.)

For test [3], the system named is PI3Kα H1047R mutated cell line T-47D. Briefly: Phospho-AKT (Ser473) Inhibition Assay (HTRF), T-47D. Particulars: for IC50: Homo sapiens, T47D, T-47D, 1 hour treatment, read-out: p-AKT Inhibition assay (S473) IC50 T-47D; for Selectivity: SK-BR-3/T-47D (p-AKT): p-AKT (S473) IC50 ratio. The test is classed as cell-based. On the procedure: (§3) Cell Culture Maintenance. The T-47D (ATCC, HTB-133) cell line was obtained from the American Type Culture Collection. Cells were maintained in RPMI1640 medium (Gibco, REF #22400105) supplemented with 10% Fetal Bovine Serum (Gibco, REF #10091148). Cultures were maintained in a humidified incubator at 37° C. under 5% CO2/95% air.
as §1, §2

For test [4], the system named is PI3Kα H1047R mutated cell line T-47D cells. The experiment in a line: Cell Proliferation Assay (CellTiter-Glo), T-47D. The settings on record: Homo sapiens, T47D, 72 h; T-47D, 3 days treatment. The format is cell-based. The method, then: as §3
Cell Proliferation Assay. PI3Kα H1047R mutated cell line T-47D cells and WT cell line SK-BR-3 were seeded at a density of 3×10^3 cells per well in 96 well plate (Xinyou Biotechnology, 062096) in 95 μL of culture medium, overnight. Compounds dissolved in 10 mM stock solutions in DMSO were serially diluted 1:3 in DMSO to generate a 9-point dilution series and plated using an INTEGRA ASSIST Plus pipetting robot. A 20× intermediate compound dilution plate in RPMI1640 medium (200 M starting compound concentration in 2% DMSO) was then prepared. Five μL of intermediate serially diluted compounds were added to the cell plate to final concentrations ranging from […] to 1 nM in 0.1% DMSO. 0.1% DMSO alone was used to establish the maximum signal and medium without cells was for minimum signal. After 3 days treatment, equilibrated the plate and its contents at room temperature for approximately 30 minutes. Added 30 μL CellTiter-Glo® Reagent (Promega, REF #G7571) to each well. Then mixed contents for 5 min on plate shaker to induce cell lysis. Incubated at room temperature for 10 minutes to stabilize luminescent signal. The plates were read on PHERAstar FSX Microplate reader using standard luminescence settings.
Relative IC50 values were determined using luminescence units by calculating percent inhibition with respect to the in-plate “MIN” (medium only) and “MAX” (0.1% DMSO) controls. The data were analyzed using a 4-parameter nonlinear logistic equation (four-parameter logistic concentration-response curve): Y=bottom+[(top−bottom)/1+(X/IC50) slope] • where Y=% inhibition, X=concentration of inhibitor, bottom=minimum value of y attained by curve-fit, top=maximum value of y attained by curve-fit and slope=steepness of curve at the IC50.

Chain of PI3Kα (p110/p85) kinase (wild type, "WT") (P42336 whole entry): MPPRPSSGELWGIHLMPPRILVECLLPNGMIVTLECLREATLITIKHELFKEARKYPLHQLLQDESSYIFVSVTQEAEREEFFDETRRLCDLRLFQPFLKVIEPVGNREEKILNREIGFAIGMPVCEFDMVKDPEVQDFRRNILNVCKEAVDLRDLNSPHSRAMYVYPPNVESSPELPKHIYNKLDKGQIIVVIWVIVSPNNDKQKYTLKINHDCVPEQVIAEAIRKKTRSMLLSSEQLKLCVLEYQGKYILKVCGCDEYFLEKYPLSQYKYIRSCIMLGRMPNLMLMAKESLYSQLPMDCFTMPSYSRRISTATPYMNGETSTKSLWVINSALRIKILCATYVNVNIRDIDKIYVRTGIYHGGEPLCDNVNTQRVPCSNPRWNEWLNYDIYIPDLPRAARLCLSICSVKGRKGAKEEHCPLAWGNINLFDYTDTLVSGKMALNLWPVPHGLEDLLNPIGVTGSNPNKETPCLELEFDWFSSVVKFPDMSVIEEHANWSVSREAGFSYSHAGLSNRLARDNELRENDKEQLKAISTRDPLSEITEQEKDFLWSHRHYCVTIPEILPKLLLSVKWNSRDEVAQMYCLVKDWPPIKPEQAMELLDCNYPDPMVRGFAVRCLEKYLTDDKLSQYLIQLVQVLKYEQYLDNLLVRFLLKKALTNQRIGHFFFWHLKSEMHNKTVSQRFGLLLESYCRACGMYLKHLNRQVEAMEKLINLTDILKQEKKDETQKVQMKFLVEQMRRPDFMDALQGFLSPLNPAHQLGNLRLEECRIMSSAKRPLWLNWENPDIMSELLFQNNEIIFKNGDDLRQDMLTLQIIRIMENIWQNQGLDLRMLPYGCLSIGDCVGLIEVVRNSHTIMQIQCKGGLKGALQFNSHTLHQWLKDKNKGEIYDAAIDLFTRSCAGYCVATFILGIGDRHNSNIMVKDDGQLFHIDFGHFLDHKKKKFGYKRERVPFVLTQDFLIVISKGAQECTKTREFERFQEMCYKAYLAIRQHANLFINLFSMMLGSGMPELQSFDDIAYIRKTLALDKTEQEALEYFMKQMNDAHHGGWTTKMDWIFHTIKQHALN
Chain of PI3Kα (p110/p85) kinase (wild type, "WT") (P27986 whole entry partner): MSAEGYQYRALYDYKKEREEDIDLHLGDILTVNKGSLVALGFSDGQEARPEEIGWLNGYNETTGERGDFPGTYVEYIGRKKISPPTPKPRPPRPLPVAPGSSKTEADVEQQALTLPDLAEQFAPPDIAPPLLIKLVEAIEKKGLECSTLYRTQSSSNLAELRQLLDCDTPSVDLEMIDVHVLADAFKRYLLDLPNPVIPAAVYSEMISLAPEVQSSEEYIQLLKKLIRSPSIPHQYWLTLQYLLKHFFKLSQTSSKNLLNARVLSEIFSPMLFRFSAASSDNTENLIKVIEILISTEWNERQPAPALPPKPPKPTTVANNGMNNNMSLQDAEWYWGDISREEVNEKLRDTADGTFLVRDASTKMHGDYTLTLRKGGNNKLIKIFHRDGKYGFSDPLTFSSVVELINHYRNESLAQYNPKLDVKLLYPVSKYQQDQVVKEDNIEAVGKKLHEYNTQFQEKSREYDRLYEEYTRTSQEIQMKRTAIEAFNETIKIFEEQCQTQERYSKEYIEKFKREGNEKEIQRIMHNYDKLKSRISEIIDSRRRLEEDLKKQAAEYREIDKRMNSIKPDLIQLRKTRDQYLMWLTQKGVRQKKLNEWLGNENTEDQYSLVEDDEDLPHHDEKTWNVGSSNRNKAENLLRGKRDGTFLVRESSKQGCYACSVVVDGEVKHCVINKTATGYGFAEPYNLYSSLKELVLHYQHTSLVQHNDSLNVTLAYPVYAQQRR
Chain of PI3Kα (p110[H1047R]/p85) kinase (P42336 whole entry H1047R): as the sequence (P42336 whole entry) above, with H1047R counted along it
Chain of PI3Kα (p110[H1047R]/p85) kinase (P27986 whole entry partner): as the sequence (P27986 whole entry partner) above

As to `Cc1cc(C(C)Nc2ccccc2C(=O)O)c2cc(-c3ccccc3)[nH]c(=O)c2c1` (stereo not drawn) [Example 26, 2-((1-(7-methyl-1-oxo-3-phenyl-1,2-dihydroisoquinolin-5-yl)ethyl)amino)benzoic acid], the IC50 is 6.25 µM in test [1], more than 10 µM in the test on WT cell line SK-BR-3, 0.158 µM in test [2] and 0.05 µM in test [3]. Also, the “selectivity: WT/H1047R” value in test [2] amounted to 40. Besides, in test [3], the “Selectivity: SK-BR-3/T-47D (p-AKT)” value is more than 198.

Turning to `CC#Cc1cc2c(C(C)Nc3ccccc3C(=O)O)cc(C)cc2c(=O)n1C` (stereo not drawn) [Example 27, 2-((1-(2,7-dimethyl-1-oxo-3-(prop-1-yn-1-yl)-1,2-dihydroisoquinolin-5-yl)ethyl)amino)benzoic acid], the IC50 in test [1] is 60.2 µM; with WT cell line SK-BR-3, more than 10 µM; in test [2], 0.762 µM; in test [3], 0.245 µM. For the same compound, in test [2], the “selectivity: WT/H1047R” value is 79. The “Selectivity: SK-BR-3/T-47D (p-AKT)” value in test [3] is more than 21.

As for `Cc1cc(C(C)Nc2ccccc2C(=O)O)c2cc(C(=O)Nc3ccccc3)n(C)c(=O)c2c1` (stereo not drawn) [Example 42, 2-((1-(2,7-dimethyl-1-oxo-3-(phenylcarbamoyl)-1,2-dihydroisoquinolin-5-yl)ethyl)amino)benzoic acid], the IC50 in test [1] worked out at 71.6 µM; in test [2] it was 0.971 µM; in test [3] it was 0.298 µM; in test [4], 3.53 µM. For the same compound, in test [2], the “selectivity: WT/H1047R” value was determined as 73.8.

In the case of `Cc1cc(C(C)Nc2cnccc2C(=O)O)c2cc(-c3ccc(F)cc3)n(C)c(=O)c2c1` (stereo not drawn) [Example 54, 3-((1-(3-(4-fluorophenyl)-2,7-dimethyl-1-oxo-1,2-dihydroisoquinolin-5-yl)ethyl)amino)isonicotinic acid], the IC50 was more than 100 µM in test [1] and 9.29 µM in test [2]. Also, the “selectivity: WT/H1047R” value in test [2] is reported as more than 10.

In turn, `COc1ncc(-c2cc3c([C@H](C)Nc4ccccc4C(=O)O)cc(C)cc3c(=O)n2C)cc1F` [Example 60, (S)-2-((1-(3-(5-fluoro-6-methoxypyridin-3-yl)-2,7-dimethyl-1-oxo-1,2-dihydroisoquinolin-5-yl)ethyl)amino)benzoic acid] yielded an IC50 in test [1] of 24.1 µM. In test [2], the IC50 is 16.4 µM and the “selectivity: WT/H1047R” value was 1.5.

On to `Cc1cc([C@H](C)Nc2ccccc2C(=O)O)c2cc(-c3ccc(F)cc3)n(CC#N)c(=O)c2c1` [Example 65, (S)-2-((1-(2-(cyanomethyl)-3-(4-fluorophenyl)-7-methyl-1-oxo-1,2-dihydroisoquinolin-5-yl)ethyl)amino)benzoic acid], for which the IC50 in test [1] and in test [2] was more than 100 µM in each case.

Turning to `Cc1cc([C@H](C)Nc2ccccc2C(=O)O)c2cc(-c3cnc(C(C)(C)O)nc3)n(C)c(=O)c2c1` [Example 68, (S)-2-((1-(3-(2-(2-hydroxypropan-2-yl)pyrimidin-5-yl)-2,7-dimethyl-1-oxo-1,2-dihydroisoquinolin-5-yl)ethyl)amino)benzoic acid], in test [1], 34.3 µM corresponded to half-maximal inhibition (IC50). For the same compound, in test [2], 21.7 µM corresponded to half-maximal inhibition (IC50) and the “selectivity: WT/H1047R” value is recorded as 1.6.

Take `Cc1cc(C(C)Nc2ccccc2C(=O)O)c2cc(-c3ccccc3C(N)=O)n(C)c(=O)c2c1` (stereo not drawn) [Example 90, 2-((1-(3-(2-carbamoylphenyl)-2,7-dimethyl-1-oxo-1,2-dihydroisoquinolin-5-yl)ethyl)amino)benzoic acid]: the figures for the IC50 in test [1] and in test [2] were 88.8 µM and 1.93 µM, respectively. The “selectivity: WT/H1047R” value in test [2] is 46.0.

As for `Cc1cc(C(C)Nc2csc3ccccc23)c2cc(-c3ccccc3)n(C)c(=O)c2c1` (stereo not drawn) [Example 93, 5-(1-(benzo[b]thiophen-3-ylamino)ethyl)-2,7-dimethyl-3-phenylisoquinolin-1(2H)-one], the IC50 in test [1] and in test [2] was more than 100 µM throughout.

Consider `Cc1cc([C@@H](C)Nc2ccccc2C(=O)O)c2cc(-c3ccc(C(C)(C)O)cc3)n(C)c(=O)c2c1` [Example 98, (R)-2-((1-(3-(4-(2-hydroxypropan-2-yl)phenyl)-2,7-dimethyl-1-oxo-1,2-dihydroisoquinolin-5-yl)ethyl)amino)benzoic acid], for which the IC50 turned out to be 7.36 µM in test [1] and 0.432 µM in test [2]. Also, the “selectivity: WT/H1047R” value in test [2] was 17.0.
